Laboratory results taken from article PMC4864078, “De Novo Transcriptome Analysis and Detection of Antimicrobial Peptides of the American Cockroach Periplaneta americana (Linnaeus)” (PLoS ONE, 2016).

Experiments:
C. albicans (ATCC 14053) = assay type: cell-based, Candida albicans; details: Mueller-Hinton Broth, 2 × 10^4 CFU/mL, 18 h at 37°C, visible turbidity, complete growth inhibition
Procedure: The bacterial strains E. coli (KACC 13821, ATCC 11775) and Staphylococcus aureus (KACC 10768, ATCC 25923), and the yeast strain Candida albicans (KCTC 7121, ATCC 14053) were purchased from the Korean Agricultural Culture Collection (KACC) and Korean Collection for Type Cultures (KCTC). Both bacteria and the yeast were cultivated overnight in tryptic soy broth (TSB; Difco, USA) at 200 rpm in a 37°C shaking incubator to the stationary phase. Bacteria were cultivated for 3 h in fresh TSB medium under the same condition to the log phase. The strains were stored with 15% glycerol at −70°C until use.
In addition, antimicrobial activities of the peptides were also tested by broth microdilution assays against E. coli, S. aureus, and C. albicans. Briefly, microbes were grown overnight in Mueller-Hinton Broth (MHB) to the onset of the stationary phase with shaking at 200 rpm. The cultures were diluted in fresh MHB to a final concentration of 2 × 10^4 CFU/mL. A stock solution of each peptide was prepared to a concentration of 640 μg/mL in 0.01% acetic acid, and was then serially diluted two-fold to reach a concentration of 10 μg/mL. After 90-μL aliquots of the microbial suspension were dispensed into each well of a 96-well polypropylene microtiter plate, 10 μL of the peptide solution was added. The antimicrobial activities of the peptides were assessed by measuring the visible turbidity in each well of the plate after 18 h of incubation at 37°C. Minimum inhibitory concentrations (MICs) are expressed as a specific value that caused complete growth inhibition.

[1] = system: Human umbilical vein endothelial cells (HUVECs); experiment: Cell viability assay (MTS); assay type: cell-based; details: 24 h treatment, 25, 50, 100 and 200 μg/mL, OD 490 nm
Procedure: (§1) The human keratinocytes were maintained in Dulbecco’s Modified Eagle Medium supplemented with 10% fetal bovine serum (FBS; Hyclone, USA), penicillin G (100 U/mL), and streptomycin (100 μg/mL) (Invitrogen, USA). Human umbilical vein endothelial cells (HUVECs) were grown on 0.1% gelatin-coated cell culture dishes in M199 medium (Welgene, Korea) supplemented with 20% (v/v) FBS, 3 ng/mL basic fibroblast growth factor (R&D Systems, USA), 5 U/mL of heparin (Sigma, USA), and a penicillin-streptomycin-amphotericin B mixture (100 U/mL potassium penicillin, […] streptomycin sulfate, and 250 ng/mL amphotericin B; Lonza, Belgium) as a complete medium. Cells were cultured at 37°C in a humidified incubator with 5% CO2. Cells were plated in 96-well tissue culture plates (2 × 10^4 cells per well). After 1 day, they were treated with various concentrations (25, 50, 100, and 200 μg/mL) of peptides. Melittin (Sigma, USA) was used as the positive control. After incubation for 24 h, the viability of the cells was assessed by the Cell Titer 96 AQueous One Solution Cell Proliferation Assay according to the manufacturer’s protocol (Promega, USA). The optical density at 490 nm was measured with a microplate reader (Beckman DTX 8800 Multi Detector, USA).

human keratinocytes = experiment: Cell viability assay (MTS); assay type: cell-based; details: 24 h treatment, 25, 50, 100 and 200 μg/mL, OD 490 nm
Procedure: as §1

CC[C@H](C)[C@H](NC(=O)CN)C(=O)NCC(=O)N[C@@H](C)C(=O)N[C@H](C(=O)N[C@@H](CC(C)C)C(=O)N[C@@H](CCCCN)C(=O)N[C@H](C(=O)N[C@@H](CC(C)C)C(=O)N[C@H](C(=O)N[C@H](C(=O)NCC(=O)N[C@@H](CC(C)C)C(=O)N1CCC[C@H]1C(=O)N[C@@H](C)C(=O)N[C@@H](CC(C)C)C(=O)N[C@H](C(=O)N[C@@H](CO)C(=O)N[C@@H](Cc1c[nH]c2ccccc12)C(=O)N[C@H](C(=O)N[C@@H](CCCCN)C(=O)N[C@@H](CCCNC(=N)N)C(=O)N[C@@H](CCCCN)C(=O)N[C@@H](CCCNC(=N)N)C(=O)N[C@@H](CCC(N)=O)C(=O)N[C@@H](CCC(N)=O)C(N)=O)[C@@H](C)CC)[C@@H](C)CC)[C@@H](C)O)[C@@H](C)O)C(C)C)C(C)C [Melittin]
Minimum Inhibitory Concentration (MIC) (C. albicans (ATCC 14053)): 8 µg/mL | Cell viability of HUVECs [1]: more susceptible | Cell viability of human keratinocytes (human keratinocytes): more susceptible
